{"source": "patent US9157062B2", "about": "“Compositions and methods for promoting the generation of PDX1+ pancreatic cells” (President and Fellows of Harvard College, priority 2008, dated 2015)", "key": {"[1]": {"system": "hESC-derived population (Pdx1+ cells)", "test": "ILV titration and test on other hESC lines, Pdx1+ cells", "assay_type": "cell-based, human", "protocol": "(§1) To generate a starting population, HUES cells were cultured on MEF feeder cells until 80-90% confluent, then treated with 25 ng/ml Wnt3a (R&D systems)+100 ng/ml Activin A (R&D systems) in advanced RPMI (A-RPMI, Invitrogen) supplemented with 1×L-Glu and 1×PS for 1 day, and then 100 ng/ml Activin A in A-RPMI supplemented with 1×L-Glu, 1×PS and 0.2% FBS (Invitrogen). Two days later, the media was changed to 50 ng/ml FGF10 (R&D systems)+0.25 μM KAAD-CYC (Calbiochem) in A-RPMI supplemented with 1×L-Glu, 1×PS and 2% FBS and maintained for additional 2 days. Cells were then transferred to 50 ng/ml FGF10+0.25 μM KAAD-CYC+2 μM RA (Sigma) in DMEM supplemented with 1×L-Glu, 1×PS, 1×B27 (Invitrogen) and cultured for an additional 4 days. ILV was obtained from Axxora, KAAD-CYC, TPB, PMA, BISI, Gö 6983, U0126 and PD98059 were obtained from Calbiochem and RA were obtained from Sigma.\n(§2) Cells were fixed with 10% formalin solution (Sigma) for 20 min at room temperature. Immunostaining was carried out with standard protocols. The following primary antibodies were used: goat anti-Pdx1 (1:500; R&D system); rabbit anti-FOXA2 (1:500; Upstate); rabbit anti-HNF6 (1:200; Santa Cruz Biotech); guinea pig anti-insulin (1:1000; Dako); rabbit anti-c-peptide (1:500; Linco); rabbit anti-amylase (1:200, Sigma); goat anti-HNF1β (1:100, Santa Cruz Biotech); and biotinylated DBA (1:400; Vector Lab). Alexa-488-, Alexa-555, and Alexa-647-conjugated donkey antibodies against mouse, rabbit, guinea pig and goat, and Pacific Blue conjugate-streptavidin (Invitrogen) were used at 1:300 dilution.\nAdditional experiments were carried out to optimize treatment to obtain more Pdx1^+ cells. […] Secondly, since hESC lines vary in their differentiation potentials (Osafune et al., 2008), ILV was tested on other hESC lines and shown to be effective on HUES 2, 4 and 8. After 4 days treatment with ILV, 26.9±2.8% cells of HUES8-derived population are positively stained by Pdx1 antibody (FIG. 2b), making it the most responsive of the lines tested."}, "[2]": {"system": "HUES8-derived population (Pdx1+ cells)", "test": "Pdx1 antibody staining of treated HUES8-derived population", "assay_type": "cell-based, human", "details": "HUES8-derived population, 4 days; 300 nM ILV and/or 50 ng/ml FGF10", "protocol": "as §1, §2\nTo determine whether PKC signaling is being activated in HUES-derived cells, HUES8-derived definitive endoderm population was treated with two PKC agonists, TPB ((2S,5S)-(E,E)-8-(5-(4-(trifluoromethyl)phenyl)-2,4-pentadienoylamino)benzolactam) and PMA (phorbol-12-myristate-13-acetate), in the absence of ILV. […] Furthermore, HUES8-derived population was treated with two PKC antagonists, BISI (Bisindolylmaleimide I) and Gö 6983, in the presence of ILV.\nExperiments were performed to monitor downstream signaling by PKC. Since ERK signaling has been reported to be regulated by PKC (Ueda et al., 1996), the activity of ERK signaling was examined with Western blotting to detect the phosphorylation of ERK1/2 at Thr-202/Tyr-204."}, "[3]": {"system": "HUES8-derived population", "test": "In vitro differentiation into pancreatic lineages with bFGF and nicotinamide", "assay_type": "cell-based, human", "protocol": "For growth factor-induced differentiation, the ILV-treated populations were cultured in DMEM/F12 supplemented with 1×N2 (Invitrogen), 2 mg/ml albumin fraction V (Invitrogen), and 10 ng/ml bFGF (Invitrogen) for the first 4 days. 10 mM nicotinamide (Sigma) was then added and maintained for additional 8 days, changing the media every 3 days.\nas §2\nIn mouse embryonic development, Pdx1^+ pancreatic progenitors contribute to exocrine, endocrine and duct cells (Gu et al., 2003). The developmental potential of Pdx1^+ cells produced by ILV treatment was tested in two assays. First, following published protocols for in vitro differentiation (Jiang et al., 2007), cells were cultured with bFGF and nicotinamide for an additional 12 days. Using this in vitro differentiation assay, four different induced cell types were tested, including HUES8-derived population before ILV treatment (no treatment), the HUES8-derived population after 4 day treatment with DMSO, 300 nM ILV or 300 nM ILV+50 ng/ml FGF10, respectively. After 12 days culture with bFGF and nicotinamide, these four populations of cells were stained with the antibodies against insulin, c-peptide, amylase or DBA (a duct marker)."}, "[4]": {"system": "ERK1/2 phosphorylation at Thr-202/Tyr-204", "test": "Western blot of ERK1/2 phosphorylation", "assay_type": "cell-based, human", "details": "300 nM ILV, 1 hour, compared to DMSO-treated control", "protocol": "Cells were lysed in 1×RIPA lysis buffer (Upstate Biotechnology) with 1% protease inhibitor mixture (Sigma)/1% phosphatase inhibitor mixture (Sigma)/1% phosphatase inhibitor mixture II (Sigma). Proteins were separated by 4-20% Tris-Glycine SDS/PAGE (Biorad) under denaturing conditions and transferred to a nitrocellulose membrane. After blocking with 5% nonfat milk in DPBS, the membrane was incubated with primary antibodies against phospho-ERK1/2 (Thr-202/Tyr-204) (1:2,000, Sigma) and ERK1/2 (1:1,000, Cell Signaling) overnight at 4° C. The membrane was then washed, incubated with anti-mouse/rabbit peroxidase-conjugated affinity-purified secondary antibody (1:1000, Cell Signaling) at room temperature for 1 hour, and developed by SuperSignal chemiluminescence (Pierce).\nExperiments were performed to monitor downstream signaling by PKC. Since ERK signaling has been reported to be regulated by PKC (Ueda et al., 1996), the activity of ERK signaling was examined with Western blotting to detect the phosphorylation of ERK1/2 at Thr-202/Tyr-204. After 1 hour treatment with 300 nM ILV, the phosphorylation of ERK1/2 increased compared to the DMSO-treated control (FIG. 8a). In addition, MEK/ERK inhibitors, PD098059 or U0126, both block ILV's effect. […]"}, "[5]": {"system": "protein kinase C (PKC) signaling", "details": "some cell lines; Heikkila and Akerman, 1989; Hirota et al., 1987; cited from earlier work"}, "[6]": {"details": "4 day treatment (300 nM ILV, 50 ng/ml FGF10), then 12 days bFGF and nicotinamide"}}}
{"substance": "(−)-Indolactam V [ILV]", "values": [{"measurement": "effect on other hESC lines", "setting": "[1]; HUES 2, 4 and 8", "value": "effective"}, {"measurement": "toxicity", "setting": "[1]; at 300 nM", "value": "no detectable toxicity"}, {"measurement": "concentration of highest efficiency", "setting": "[1]; titration of ILV from 20 nM to 5 μM", "value": 300, "unit": "nM"}, {"measurement": "EC50", "setting": "[1]; titration of ILV from 20 nM to 5 μM, read-out: EC50 (dose-dependent increase of Pdx1+ cells)", "value": 142, "unit": "nM"}, {"measurement": "percentage of cells stained by Pdx1 antibody", "setting": "[2]", "value": "26.9±2.8", "unit": "%"}, {"measurement": "DBA+ duct cells", "setting": "[3]; [6]", "value": "3.6±1.3", "unit": "%"}, {"measurement": "amylase+ exocrine cells", "setting": "[3]; [6]", "value": "22.7±5.3", "unit": "%"}, {"measurement": "insulin+ cells", "setting": "[3]; [6]", "value": "0.5±0.2", "unit": "%"}, {"measurement": "contribution to somatostatin+ cells", "setting": "[3]; compared to no treatment or DMSO, immunostaining and qRT-PCR", "value": "stronger ability to contribute"}, {"measurement": "phosphorylation of ERK1/2", "setting": "[4]", "value": "increased"}, {"measurement": "PKC signaling", "setting": "[5]", "value": "activates"}]}
